From article PMC7998669, “7-(2-Anilinopyrimidin-4-yl)-1-benzazepin-2-ones Designed by a “Cut and Glue” Strategy Are Dual Aurora A/VEGF-R Kinase Inhibitors” (Molecules, 2021)
pIC50: −log10 of the molar value.

Tests used:
Test in all cases: radiometric 33PanQinase protein kinase assay
Format in all cases: biochemical
Conditions in all cases: for pIC50: radiometric assay, 1 µM ATP; for remaining activity at 10 µM: 10 µM compound, residual kinase activity
VEGF-R2 = molecular target: T1, VEGF-R2 (Homo sapiens, UniProt P35968)
T1 construct: host or cells: Sf9 (baculovirus)
Protocol: (§1) The inhibitory activity of prototype 2a was determined in a panel of 24 tumor-relevant protein kinases using a radiometric assay. Only the kinases Aurora A, VEGF-R2 and VEGF-R3 were inhibited with single digit micromolar IC50 values (Table 2). Structural modifications were then implemented, particularly directed to improve inhibition of Aurora A. The so-designed congeners with small substituents at the aniline ring 2b–2n were examined for inhibition of Aurora A and of VEGF-R2, VEGF-R3 and Aurora B for comparison (Table 3).
(§2) The screening for protein kinase inhibition was performed with the radiometric ^33Panqinase activity assay at Reaction Biology Europe GmbH (Freiburg) using a robotic system (Beckmann Coulter/SagianRoboter) and 96-well plates (FlashPlates, Perkin/Elmer/NEN, Boston, MA, USA). In brief, the transfer of ^33P-phosphate into the substrate was measured with a microplate scintillation counter (Microbeta Trilux, Wallace). Protein kinases were expressed in Sf9 cells as recombinant glutathione S-transferase (GST) or polyhistidine (His)-tagged proteins in baculovirus. Isolation and purification of expressed kinases were performed with affinity chromatography by using GSH agarose (Sigma) or Ni-NTA agarose (Qiagen). The standard solution for each enzyme contained: 60 mM HEPES-NaOH (pH 7.5), 3 mM MgCl2, 3 µM sodium orthovanadate, 1.2 mM DTT, 50 µg/mL PEG20000 and 1 µM [γ-^33P]-ATP (approximately 5 × 10^5 cpm per well). In chronological order the reaction mixture was prepared: 20 µL standard solution, 5 µL ATP solution in water, 5 µL of the compound in 10% DMSO and 20 µL of enzyme/substrate mixture (50:50). Each kinase contained different substrates in different concentrations: 125 ng/50 µL Poly(Glu, Tyr)4:1 for 20 ng/50 µL IGF1-R, 25 ng/50 µL IGF1-R, 20 ng/50 µL EGF-R, 25 ng/50 µL EGF-R, 40 ng/50 µL EGF-R, 10 ng/50 µL EPHB4, 20 ng/50 µL EPHB4, 200 ng/50 µL ERBB2, 10 ng/50 µL SRC, 100 ng/50 µL FAK, 200 ng/50 µL FAK, 50 ng/50 µL VEGF-R2, 100 ng/50 µL VEGF-R3, 200 ng/50 µLTIE2; 250 ng/50 µL Poly(Glu, Tyr)4:1 for 200 ng/50 µL TIE2; 500 ng/50 µL tetra (LRRWSLG) for 50 ng/50 µL Aurora-A, 25 ng/50 µL PAK4, 25 ng/50 µL PDK1; 250 ng/50 µL tetra (LRRWSLG) for 50 ng/50 µL Aurora-B, 200 ng/50 µL Aurora-B; 125 ng/50 µL Histon H1 for 100 ng/50 µL CDK2/CycA; 250 ng/50 µL Rb-CTF for 50 ng/50 µL CDK/CycD1; 500 ng/50 µL Rb-CTF for 50 ng/50 µL CDK4/CycD1; 125 ng/50 µL Poly(ala, Glu, Lys, Tyr)6:2:5:1 for 25 ng/50 µL INS-R, 50 ng/50 µL PDGFR-beta, 100 ng/50 µL PDGFR-beta, 100 ng/50 µL FLT3, 150 ng/50 µL FLT3, 20 ng/50 µL MET, 50 ng/50 µL MET, 100 ng/50 µL MET; 250 ng/50 µL Casein for 200 ng/50 µL CK2-alpha1, 200 ng/50 µL PLK1; 1000 ng/50 µL Casein for 200 ng/50 µL PLK1, 200 ng/50 µL CK2-alpha1; 1000 ng/50 µLGSK3 (14–27) for 100 ng/50 µL AKT1; 125 ng/50 µL p53-CTM for 150 ng/50 µL CK2-alpha1, 200 ng/50 µLCK2-alpha1; 250 ng/50 µL MEK-KM for 20 ng/50 µL B-RAF-VE; autophosphorylation at ARK5, COT and SAK. After incubation (80 min, 30 °C) the reaction was stopped by adding 50 µL 2% (v/v) phosphoric acid to the reaction mixture. The microplate was washed twice with 200 µL 0.9% (v/v) saturated sodium chloride or water. The measured radioactivity, conditioned by the incorporation of [γ-^33P]-phosphate, is proportional to kinase activity. Furthermore, low control and high control were measured to determine the residual activity (%). As low controls, mixtures with substrate, but without enzyme were used to determine the unspecific binding of [γ-^33P]-phosphate to the well plate. Mixtures with enzyme, but without inhibitor were used as high controls to determine maximum enzyme activity. The IC50-values of the distinct compounds were calculated with Quattro Workflow V1.1.0.8 (Quattro Research GmbH, München, Germany). Dose response curves were generated by measurement of the residual activity of ten different inhibitor concentrations (0.1 mM, 30.0 µM, 10 µM, 3.0 µM, 1.0 µM, 0.3 µM, 0.1 µM, 30.0 nM, 10.0 nM and 3.0 nM). […]

VEGF-R3 = molecular target: T2, VEGF-R3 (Homo sapiens, UniProt P35916)
T2 construct: host or cells: Sf9 (baculovirus)
Protocol: as §1, §2

Aurora-B = molecular target: T3, Aurora-B (Homo sapiens, UniProt Q96GD4)
T3 construct: host or cells: Sf9 (baculovirus)
Protocol: as §1, §2

Aurora-A = molecular target: T4, Aurora-A (Homo sapiens, UniProt O14965)
T4 construct: host or cells: Sf9 (baculovirus)
T4 sequence (O14965 1-403): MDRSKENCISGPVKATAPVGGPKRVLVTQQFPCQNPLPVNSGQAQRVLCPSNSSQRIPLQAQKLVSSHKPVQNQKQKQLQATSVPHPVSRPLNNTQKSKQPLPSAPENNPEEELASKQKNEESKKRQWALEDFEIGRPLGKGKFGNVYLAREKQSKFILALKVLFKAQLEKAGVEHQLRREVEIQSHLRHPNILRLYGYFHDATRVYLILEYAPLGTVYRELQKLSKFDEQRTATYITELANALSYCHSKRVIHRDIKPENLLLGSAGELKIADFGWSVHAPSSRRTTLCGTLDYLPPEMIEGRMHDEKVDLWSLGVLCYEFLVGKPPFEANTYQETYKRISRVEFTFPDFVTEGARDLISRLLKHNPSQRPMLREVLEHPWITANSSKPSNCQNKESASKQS
Protocol: as §1, §2

T3 sequence (Q96GD4 whole entry): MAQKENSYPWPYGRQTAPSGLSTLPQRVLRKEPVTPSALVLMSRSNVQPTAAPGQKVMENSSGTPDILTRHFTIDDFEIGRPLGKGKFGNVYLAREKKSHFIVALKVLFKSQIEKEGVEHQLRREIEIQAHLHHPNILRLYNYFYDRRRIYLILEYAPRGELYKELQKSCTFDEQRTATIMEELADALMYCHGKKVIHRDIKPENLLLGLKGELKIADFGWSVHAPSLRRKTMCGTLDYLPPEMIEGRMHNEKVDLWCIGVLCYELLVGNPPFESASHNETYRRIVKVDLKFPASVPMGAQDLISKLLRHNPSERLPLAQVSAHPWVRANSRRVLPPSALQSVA
T2 sequence (P35916 25-1363): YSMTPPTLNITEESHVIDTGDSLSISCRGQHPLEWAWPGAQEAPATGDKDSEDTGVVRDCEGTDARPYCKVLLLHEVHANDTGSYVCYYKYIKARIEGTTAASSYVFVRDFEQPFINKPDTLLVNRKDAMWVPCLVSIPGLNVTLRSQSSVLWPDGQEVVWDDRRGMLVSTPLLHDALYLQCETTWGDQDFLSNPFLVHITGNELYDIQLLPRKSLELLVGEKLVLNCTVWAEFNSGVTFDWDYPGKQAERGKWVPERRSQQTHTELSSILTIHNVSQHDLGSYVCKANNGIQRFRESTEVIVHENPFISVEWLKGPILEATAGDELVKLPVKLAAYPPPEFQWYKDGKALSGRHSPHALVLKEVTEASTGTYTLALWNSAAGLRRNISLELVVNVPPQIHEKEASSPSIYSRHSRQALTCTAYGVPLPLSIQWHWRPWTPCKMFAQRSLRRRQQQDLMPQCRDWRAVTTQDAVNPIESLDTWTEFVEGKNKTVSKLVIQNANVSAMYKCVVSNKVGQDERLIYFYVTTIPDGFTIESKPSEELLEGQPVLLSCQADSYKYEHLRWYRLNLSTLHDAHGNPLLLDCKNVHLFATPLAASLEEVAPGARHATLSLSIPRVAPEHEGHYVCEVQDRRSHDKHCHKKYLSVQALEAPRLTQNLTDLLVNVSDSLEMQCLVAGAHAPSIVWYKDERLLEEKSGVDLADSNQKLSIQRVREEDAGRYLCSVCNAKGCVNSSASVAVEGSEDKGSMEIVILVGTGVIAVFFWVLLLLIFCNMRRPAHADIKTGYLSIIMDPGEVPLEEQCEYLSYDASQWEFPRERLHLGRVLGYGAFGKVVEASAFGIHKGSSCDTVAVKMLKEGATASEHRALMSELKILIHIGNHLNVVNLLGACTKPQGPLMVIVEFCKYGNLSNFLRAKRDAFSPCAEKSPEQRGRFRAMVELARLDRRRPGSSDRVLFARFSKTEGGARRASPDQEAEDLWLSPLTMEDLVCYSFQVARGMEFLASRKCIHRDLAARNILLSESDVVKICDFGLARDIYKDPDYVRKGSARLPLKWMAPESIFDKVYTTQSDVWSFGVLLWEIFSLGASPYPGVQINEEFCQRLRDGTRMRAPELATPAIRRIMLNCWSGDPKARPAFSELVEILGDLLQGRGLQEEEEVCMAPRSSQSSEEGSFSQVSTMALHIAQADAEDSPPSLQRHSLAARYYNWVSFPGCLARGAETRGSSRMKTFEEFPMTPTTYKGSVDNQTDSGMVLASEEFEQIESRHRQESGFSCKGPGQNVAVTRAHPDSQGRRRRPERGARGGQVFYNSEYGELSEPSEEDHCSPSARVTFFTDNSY
T1 sequence (P35968 20-1356): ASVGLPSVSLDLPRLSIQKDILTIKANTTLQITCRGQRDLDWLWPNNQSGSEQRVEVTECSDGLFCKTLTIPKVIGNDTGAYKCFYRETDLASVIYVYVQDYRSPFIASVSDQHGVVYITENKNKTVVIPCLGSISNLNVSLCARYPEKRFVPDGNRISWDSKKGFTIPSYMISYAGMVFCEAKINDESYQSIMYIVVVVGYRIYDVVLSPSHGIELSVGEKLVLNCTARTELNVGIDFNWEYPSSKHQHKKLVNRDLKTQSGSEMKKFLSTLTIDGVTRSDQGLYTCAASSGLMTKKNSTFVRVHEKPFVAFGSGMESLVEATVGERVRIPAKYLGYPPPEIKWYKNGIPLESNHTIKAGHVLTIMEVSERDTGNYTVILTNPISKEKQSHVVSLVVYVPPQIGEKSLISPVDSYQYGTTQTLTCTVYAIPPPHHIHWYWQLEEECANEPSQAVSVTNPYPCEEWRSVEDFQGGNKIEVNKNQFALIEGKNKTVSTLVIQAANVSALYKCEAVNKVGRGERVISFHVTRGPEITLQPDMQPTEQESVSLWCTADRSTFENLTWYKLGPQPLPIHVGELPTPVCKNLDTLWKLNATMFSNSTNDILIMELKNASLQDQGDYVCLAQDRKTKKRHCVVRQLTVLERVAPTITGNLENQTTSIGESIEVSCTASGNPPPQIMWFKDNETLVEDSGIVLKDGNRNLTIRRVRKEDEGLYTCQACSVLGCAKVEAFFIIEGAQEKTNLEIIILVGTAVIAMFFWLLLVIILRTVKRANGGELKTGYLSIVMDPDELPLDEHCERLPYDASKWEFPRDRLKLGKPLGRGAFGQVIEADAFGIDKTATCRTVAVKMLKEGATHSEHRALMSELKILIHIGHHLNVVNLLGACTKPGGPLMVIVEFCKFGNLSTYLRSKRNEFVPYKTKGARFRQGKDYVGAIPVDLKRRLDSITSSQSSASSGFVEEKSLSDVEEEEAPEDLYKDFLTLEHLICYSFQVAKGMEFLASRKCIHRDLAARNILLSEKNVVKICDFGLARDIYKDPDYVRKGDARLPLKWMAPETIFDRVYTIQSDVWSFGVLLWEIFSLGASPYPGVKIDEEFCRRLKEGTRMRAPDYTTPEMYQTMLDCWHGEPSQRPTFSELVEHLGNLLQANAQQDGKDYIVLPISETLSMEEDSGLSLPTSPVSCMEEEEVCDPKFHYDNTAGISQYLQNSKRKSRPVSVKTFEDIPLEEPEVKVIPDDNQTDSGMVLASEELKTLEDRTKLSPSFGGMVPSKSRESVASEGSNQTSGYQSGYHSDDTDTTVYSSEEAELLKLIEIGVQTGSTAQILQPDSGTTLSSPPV

pIC50 (VEGF-R2) | pIC50 (VEGF-R3) | pIC50 (Aurora-B) | pIC50 (Aurora-A) | remaining activity at 10 µM (VEGF-R2) [%] | remaining activity at 10 µM (VEGF-R3) [%] | remaining activity at 10 µM (Aurora-B) [%] | remaining activity at 10 µM (Aurora-A) [%] | Structure (SMILES)
5.74 | 5.37 | 4.80 | 5.62 |  |  |  |  | Cc1ccc(Nc2nccc(-c3ccc4c(c3)CCCC(=O)N4)n2)cc1 [Compound 2b, 7-[2-(4-Toluidino)pyrimidin-4-yl]-1,3,4,5-tetrahydro-2H-1-benzazepin-2-one]
5.89 | 5.60 | 4.74 | 5.74 |  |  |  |  | COc1ccc(Nc2nccc(-c3ccc4c(c3)CCCC(=O)N4)n2)cc1 [Compound 2c, 7-[2-(4-Methoxyanilino)pyrimidin-4-yl]-1,3,4,5-tetrahydro-2H-1-benzazepin-2-one]
5.70 | 5.52 | 4.70 | 5.82 |  |  |  |  | CCOc1ccc(Nc2nccc(-c3ccc4c(c3)CCCC(=O)N4)n2)cc1 [Compound 2d, 7-[2-(4-Ethoxyanilino)pyrimidin-4-yl]-1,3,4,5-tetrahydro-2H-1-benzazepin-2-one]
4.96 | 4.72 | 4.40 | 5.03 |  |  |  |  | O=C1CCCc2cc(-c3ccnc(Nc4ccc(Cl)cc4)n3)ccc2N1 [Compound 2f, 7-[2-(4-Chloroanilino)pyrimidin-4-yl]-1,3,4,5-tetrahydro-2H-1-benzazepin-2-one]
5.27 | 5.39 | 4.74 | 5.46 |  |  |  |  | O=C1CCCc2cc(-c3ccnc(Nc4ccc(Br)cc4)n3)ccc2N1 [Compound 2g, 7-[2-(4-Bromoanilino)pyrimidin-4-yl]-1,3,4,5-tetrahydro-2H-1-benzazepin-2-one]
4.77 | 5.21 | 4.28 | 5.46 |  |  |  |  | O=C1CCCc2cc(-c3ccnc(Nc4ccc(I)cc4)n3)ccc2N1 [Compound 2h, 7-[2-(4-Iodoanilino)pyrimidin-4-yl]-1,3,4,5-tetrahydro-2H-1-benzazepin-2-one]
4.96 | 4.46 | < 4.00 | < 4.00 |  |  |  |  | O=C1CCCc2cc(-c3ccnc(Nc4ccc([N+](=O)[O-])cc4)n3)ccc2N1 [Compound 2i, 7-[2-(4-Nitroanilino)pyrimidin-4-yl]-1,3,4,5-tetrahydro-2H-1-benzazepin-2-one]
5.08 | 4.72 | < 4.00 | < 4.00 |  |  |  |  | O=C1CCCc2cc(-c3ccnc(Nc4ccccc4O)n3)ccc2N1 [Compound 2j, 7-[2-(2-Hydroxyanilino)pyrimidin-4-yl]-1,3,4,5-tetrahydro-2H-1-benzazepin-2-one]
 |  |  |  | 74 | 72 | 87 | 74 | O=C1CCCc2cc(-c3ccnc(Nc4ccccc4Cl)n3)ccc2N1 [Compound 2k, 7-[2-(2-Chloroanilino)pyrimidin-4-yl]-1,3,4,5-tetrahydro-2H-1-benzazepin-2-one]
 |  |  |  | 78 | 64 | 116 | 73 | O=C1CCCc2cc(-c3ccnc(Nc4ccccc4Br)n3)ccc2N1 [Compound 2l, 7-[2-(2-Bromoanilino)pyrimidin-4-yl]-1,3,4,5-tetrahydro-2H-1-benzazepin-2-one]
